Here are results for two molecules from PMC6749521, “The Effect of Flavonoid Aglycones on the CYP1A2, CYP2A6, CYP2C8 and CYP2D6 Enzymes Activity” (Molecules, 2019).

Data set [1] concerns the target T1, CYP1A2 (Homo sapiens, UniProt P05177).
T1 sequence (P05177 1-516): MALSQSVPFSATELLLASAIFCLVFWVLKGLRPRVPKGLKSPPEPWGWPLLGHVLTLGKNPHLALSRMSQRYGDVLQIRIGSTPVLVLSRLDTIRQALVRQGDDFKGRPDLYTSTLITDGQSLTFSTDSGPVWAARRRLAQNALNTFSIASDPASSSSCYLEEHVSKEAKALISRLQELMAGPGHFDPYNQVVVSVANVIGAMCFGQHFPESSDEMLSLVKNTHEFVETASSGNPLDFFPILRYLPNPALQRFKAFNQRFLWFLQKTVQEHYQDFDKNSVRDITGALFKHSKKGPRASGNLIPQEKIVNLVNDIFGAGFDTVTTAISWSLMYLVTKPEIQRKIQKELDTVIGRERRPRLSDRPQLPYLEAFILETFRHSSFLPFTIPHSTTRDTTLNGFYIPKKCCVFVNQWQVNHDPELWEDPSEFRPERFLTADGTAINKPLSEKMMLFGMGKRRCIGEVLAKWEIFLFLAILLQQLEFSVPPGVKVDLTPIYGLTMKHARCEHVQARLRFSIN
Description: CYP1A2 enzyme activity, phenacetin O-deethylation (MDI, TDI, DI assays), recombinant baculosomes. The settings on record: for Type of CYP1A2 inhibition: concluded from MDI, TDI, DI assays at 1 µM; for activity at 15 min, 1 µM: human. Here is the method:
(§1) The recombinant baculosomes with hyperexpressed cytochromes P450 (1A2, 2A6, 2C8, and 2D6) and coexpressed NADPH cytochrome P450 reductase and cytochrome b5 were used as a source of enzyme. Baculosomes were commercially obtained from Thermo Fisher Scientific (Waltham, MA, USA), and all other chemicals from Sigma-Aldrich if not otherwise indicated. A 1.0 M solution phosphate buffer of pH 7.4 was prepared in house. NADPH generating system was prepared of 0.1 M glucose-6-phosphate, 10 mg mL^−1 NADP^+, and 1000 IU mL^−1 glucose-6-phosphate dehydrogenase in ratio 100:50:2 (v/v/v).
Phenacetine O-deethylation was used as a marker reaction for monitoring CYP1A2 enzyme activity (Figure 2). Incubations of 100 µL were conducted at the temperature of 37 °C. The pH of the incubation mixture was set at 7.4 using a potassium phosphate buffer (final concentration 50 mM). The total amount of CYP1A2 enzyme was 5 pmol, and the final concentration of substrate was 150 µM. Residual activity was determined by incubating the flavonoid (1 µM) with phenacetine as a substrate for 15 min, with or without preincubation, depending of the type of inhibition assay. Reactions were started by the addition of 15 µL of NADPH generating system, while the reactions were stopped by the addition of 1 mL 1% formic acid in acetonitrile. After centrifugation (10 min, 1900× g), the clear solution was transferred to a vial for HPLC analysis.
HPLC analysis was performed on Agilent 1100 instrument (Santa Clara, CA, USA) coupled with a diode array detector (DAD) on Luna C18 column (4.6 × 150 mm, 3 μm). The gradient method was used for separation. Mobile phase A consisted of water, acetonitrile, and glacial acetic acid in the volume ratio of 90:10:0.1, while mobile phase B contained the same solvents in the ratio 10:90:0.1. The following gradient timetable was used (t/min, %B): (0, 0), (2, 0), (13, 55), (14, 0), (20, 0). The flow rate was 1 mL/min, and chromatograms were recorded at 254 nm. Volume of incubation injected to the column was 15 µL. […] The amount of generated product (acetaminophen) was determined as the area under the curve based on the calibration curve of the standard.
(§2) Three types of experiments were conducted to determine metabolism dependent inhibition, time dependent inhibition, and direct inhibition of CYP1A2, CYP2A6, CYP2C8, and CYP2D6 enzymes.
(§3) To determine metabolism dependent inhibition (MDI assay), the flavonoid was first preincubated with the enzyme with the addition of the generating system for 30 min, after which the marker substrate was added to determine residual enzyme activity (as described above for each enzyme).
(§4) If metabolism dependent inhibition was determined, time dependent inhibition and direct inhibition were tested. Time dependent inhibition (TDI assay) was assessed by preincubating the flavonoid and enzyme, without the generating system, after which residual activity was determined by adding the NADPH generating system along with the substrate (as described above for each enzyme).
(§5) The direct inhibition assay (DI assay) was conducted without preincubation, i.e., the NADPH generating system was added to the incubation mixture containing flavonoid and substrate following the experimental set-up described above for each individual cytochrome P450 enzyme.
(§6) Pure time dependent inhibitors require time to interact with the enzyme. Thus, TDI inhibitors will show a reduction of enzyme activity in assays with preincubations, i.e., the MDI and TDI assays, but not in the DI assay (no preincubation). […] DI inhibitors will reduce enzyme activity in all three assays (MDI, TDI, and DI).
All incubations were conducted in triplicate. The results are expressed as the residual activity of the enzyme, i.e., the percentage of product generated in incubation with the addition of flavonoid in ratio to the control without flavonoid.

A further data set deals with T2, CYP2C8 (Homo sapiens, UniProt P10632).
T2 construct: purchased Thermo Fisher Scientific; host or cells: baculosomes
T2 sequence (P10632 1-490): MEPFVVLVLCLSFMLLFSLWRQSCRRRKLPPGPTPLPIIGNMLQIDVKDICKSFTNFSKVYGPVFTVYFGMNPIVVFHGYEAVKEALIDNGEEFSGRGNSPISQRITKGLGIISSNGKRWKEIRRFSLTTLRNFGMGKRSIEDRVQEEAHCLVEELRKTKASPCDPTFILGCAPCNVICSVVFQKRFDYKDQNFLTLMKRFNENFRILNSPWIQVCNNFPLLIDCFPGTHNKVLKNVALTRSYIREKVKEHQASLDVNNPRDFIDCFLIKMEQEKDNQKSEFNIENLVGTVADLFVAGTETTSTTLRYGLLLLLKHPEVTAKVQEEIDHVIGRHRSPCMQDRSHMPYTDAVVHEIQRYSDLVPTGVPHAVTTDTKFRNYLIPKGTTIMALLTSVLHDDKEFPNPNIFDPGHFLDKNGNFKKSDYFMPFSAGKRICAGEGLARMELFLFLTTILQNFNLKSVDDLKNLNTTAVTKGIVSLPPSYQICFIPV
Description: CYP2C8 enzyme activity, paclitaxel 6α-hydroxylation (MDI, TDI, DI assays), recombinant baculosomes. It is filed as biochemical. Here is the method: as §1
Paclitaxel 6α-hydroxylation was used as a marker reaction for monitoring CYP2C8 enzyme activity (Figure 2). The incubation conditions were the same as for CYP1A2 enzyme (vide supra) unless otherwose stated. The final concentration of paclitaxel was 20 µM, while the incubation time was set to 30 min.
HPLC-DAD analysis was conducted on the same system as the CYP1A2 enzyme with the following modifications: The gradient timetable (t/min, %B) was (0, 50), (2, 50), (10, 90), (11, 50), (17, 50), and the detection wavelength was 227 nm. […] The amount of generated product was determined as the area under the curve based on the calibration curve of the standard.
as §2, §3, §4, §5, §6
(§7) All incubations were conducted in triplicate. The results are expressed as the residual activity of the enzyme, i.e., the percentage of product generated in incubation with the addition of flavonoid in ratio to the control without flavonoid. The statistical significance was tested with Student’s t-test in the program R (The R Project for Statistical Computing, Vienna, Austria).

Another data set has as its system rat liver microsomes. Also noted: method as in ref 24 (Siess et al.). The settings on record: ref 24 (Siess et al.); cited from earlier work.
For data set [2], the system named is CYP1A2. Set-up: method as in ref 23 (Lee et al.). The note with it: ref 23 (Lee et al.); cited from earlier work.
For data set [3], the system named is CYP1A2. Also noted: method as in ref 25 (Kim et al.). The note with it: recombinant cytochrome P450 system; ref 25 (Kim et al.); cited from earlier work.
A further data set deals with CYP3A4. Also noted: method as in PMID 30301254. The note with it: statistical significance p < 0.1; cited from earlier work.
For a further data set, the target named is T3, CYP2A6 (Homo sapiens, UniProt P11509).
T3 sequence (P11509 1-494): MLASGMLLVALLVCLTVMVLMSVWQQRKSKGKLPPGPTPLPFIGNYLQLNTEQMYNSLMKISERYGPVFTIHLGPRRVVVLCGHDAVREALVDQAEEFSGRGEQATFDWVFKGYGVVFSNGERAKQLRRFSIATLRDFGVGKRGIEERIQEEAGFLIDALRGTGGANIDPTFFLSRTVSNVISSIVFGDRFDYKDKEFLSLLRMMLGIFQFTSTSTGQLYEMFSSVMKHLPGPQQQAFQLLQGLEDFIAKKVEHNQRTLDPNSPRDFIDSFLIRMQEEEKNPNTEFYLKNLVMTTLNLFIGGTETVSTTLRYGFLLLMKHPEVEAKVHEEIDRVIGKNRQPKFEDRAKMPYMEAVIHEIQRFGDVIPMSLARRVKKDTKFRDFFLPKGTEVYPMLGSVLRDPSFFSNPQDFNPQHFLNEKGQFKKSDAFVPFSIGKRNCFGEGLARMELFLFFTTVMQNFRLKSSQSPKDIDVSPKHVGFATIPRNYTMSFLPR
Description: CYP2A6 enzyme activity, coumarin 7-hydroxylation (MDI, TDI, DI assays), recombinant baculosomes. Here is the method:
as §1
The aromatic hydroxylation of coumarin at the position 7 was used as a marker reaction for CYP2A6. The incubation conditions were the same as for CYP1A2 enzyme (vide supra) unless otherwise stated. The final concentration of coumarin was 10 µM, while the incubation time was extended to 30 min.
HPLC-DAD analysis was conducted on the same system as the CYP1A2 enzyme with the following modifications: The gradient timetable (t/min, %B) was (0, 20), (1.5, 20), (10, 70), (11, 20), (17, 20), and the detection wavelength was 330 nm. The retention time of the substrate (coumarin) was 7.5 min, while the product (7-hydroxycoumarin) was detected at 4.8 min. The amount of generated product was determined as the area under the curve based on the calibration curve of the standard.
as §2, §3, §4, §5, §6, §7

Data set [4] concerns CYP1A2. Set-up: method as in ref 28 (Chang et al.). The settings on record: ref 28 (Chang et al.); read-out: Inhibition constant, competitive inhibition of CYP1A2-mediated 7-ethoxyresorufin O-dealkylation; cited from earlier work.

`O=c1cc(-c2ccccc2)oc2cc(O)cc(O)c12` [chrysin]: at CYP1A2 [1] (1 µM flavonoid), the “Inhibition of CYP1A2 activity” value is recorded as “inhibited”. Further, on CYP1A2 [1] (1 µM flavonoid, preincubation without generating system), the “Residual CYP1A2 enzyme activity, time dependent inhibition (TDI) assay” value is recorded as “complete inhibition”. Moreover, the “Type of CYP1A2 inhibition” value on CYP1A2 [1] is listed as “reversible”. Also, the activity at 15 min, 1 µM on CYP1A2 [1] (pH 7.4, probe phenacetin (O-deethylation), 150 µM) is 18 ± 4%; on CYP1A2 [1] (pH 7.4, probe phenacetin (O-deethylation), 150 µM, Residual CYP1A2 enzyme activity, direct inhibition (DI) assay, 1 µM flavonoid, no preincubation) it was 23 ± 6%. The “Inhibition of CYP2C8 paclitaxel 6-α-hydroxylation” value at CYP2C8 (1 µM flavonoid) is “inhibition”. Besides, the “CYP2C8 enzyme activity in the TDI assay” value on CYP2C8 (1 µM flavonoid, TDI assay) was “reduction of enzyme activity was not observed”. On CYP2C8 (concluded from MDI, TDI, DI assays at 1 µM), the “Type of CYP2C8 inhibition” value was “mixed reversible and irreversible inhibitors”. The “Type of inhibition of ethoxy- and pentoxy-resorufin dealkylation” value in the data set with rat liver microsomes is “mix type reversible”. In addition, in the data set on CYP1A2 [2], the “Type of CYP1A2 inhibition, N3-demethylation of caffeine” value was “reversible, competitive inhibition”. For the same molecule, the “Type of CYP1A2 inhibition, ethoxyresorufin O-deethylation” value in the data set with CYP1A2 [3] is given as “reversible mix inhibition”. In the data set on CYP3A4, the “Inhibition of CYP3A4 metabolic activity” value was “inhibition”.
In the case of `COc1cc(-c2oc3cc(O)cc(O)c3c(=O)c2O)ccc1O` [isorhamnetin], at CYP1A2 [1] (1 µM flavonoid), the “Inhibition of CYP1A2 activity” value is “inhibited”. At CYP1A2 [1], the “Type of CYP1A2 inhibition” value is recorded as “reversible inhibitor”. On CYP1A2 [1] (pH 7.4), the activity at 15 min, 1 µM amounted to 8 ± 2%. Besides, at CYP2A6 (1 µM flavonoid), the “Inhibition of CYP2A6 enzyme activity” value is on record as “inhibited”. In addition, the inhibition at 30 min, 1 µM at CYP2A6 (human, pH 7.4) was determined as 16 ± 5%. Also, the Ki in the data set with CYP1A2 [4] was 140 nM. For the same molecule, in the data set with CYP3A4, the “Inhibition of CYP3A4 metabolic activity” value is “inhibition”.

A word on the inhibition: it is how much of the control response was suppressed.
